{"source": "paper PMC4144908", "about": "“Structural Insights of the ssDNA Binding Site in the Multifunctional Endonuclease AtBFN2 from Arabidopsis thaliana” (PLoS ONE, 2014)", "key": {"[1]": {"molecular_target": "T1, AtBFN2 (Arabidopsis thaliana, UniProt Q9C9G4)", "T1 sequence (Q9C9G4 28-290)": "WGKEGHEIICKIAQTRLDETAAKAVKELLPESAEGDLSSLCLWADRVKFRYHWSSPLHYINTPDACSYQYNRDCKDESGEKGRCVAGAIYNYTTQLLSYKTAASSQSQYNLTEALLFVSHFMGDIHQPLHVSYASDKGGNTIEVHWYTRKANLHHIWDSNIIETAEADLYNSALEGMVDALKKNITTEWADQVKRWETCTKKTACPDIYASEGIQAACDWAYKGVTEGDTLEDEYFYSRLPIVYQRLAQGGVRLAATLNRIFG", "design": "gene ENDO2", "conditions": "active site, tri-zinc cluster; crystals grown with 0.2 M Na2HPO4, 0.1 M Hepes pH 7.5"}, "[2]": {"molecular_target": "T1, AtBFN2", "assay": "acid-soluble ssDNA release, A260", "format": "biochemical", "design": "gene ENDO2; ENDO2 cDNA with C-terminal 6xHis tag, overexpressed in transgenic Arabidopsis seedlings; three Zn ions", "conditions": "heat-denatured ssDNA substrate; 100 mM Tris pH 7, 37 °C, 10 min; 1 mM Na3VO4"}}, "data": [{"smiles": "O=P(O)(O)O", "note": "[phosphate]", "values": [{"measurement": "X-ray crystal structure, 2.0 Å", "setting": "[1]", "result": "have a phosphate anion displacing all coordinating waters, except Wat3 (Fig. 2D)"}]}, {"smiles": "[O]=[V]([OH])([OH])[OH]", "note": "[vanadate]", "values": [{"measurement": "% inhibition at 1 mM", "setting": "[2]", "result": 80, "unit": "%"}]}]}
